# From patent US20190225650A1, “PEPTIDOMIMETIC MACROCYCLES AND USE THEREOF IN REGULATING HIF1ALPHA” (AILERON THERAPEUTICS, INC., priority 2013, published 2019)
# Bridge positions count the residues as written; N and C are the ends. Square brackets hold non-standard residues; d marks the D form. Peptide text beside a SMILES is read from it. R8 = C=CCCCCCC[C@@](C)(N)C(=O)O; Cba = N[C@@H](CC1CCC1)C(=O)O; S5 = C=CCCC[C@](C)(N)C(=O)O; Nle = CCCC[C@H](N)C(=O)O
# Tests used:
# [1] = target: T1, flag-tagged HIF1α (AA 786-826) / His6-tagged p300 (AA 323-423) complex (Homo sapiens, UniProt Q09472); test: HIF1α p300 displacement assay (TR FRET, +CHAPS); type: binding; details: read-out: IC50 (nM) (HIF1α_p300 Displacement + CHAPS)
# T1 construct: His6-tagged p300 (AA 323-423); made in house; host or cells: E. coli (pETDuet vector)
# Outline: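 The co-expressed flag-HIF1α (786-826)/His6-p300 (323-423) complex, purified from E. coli with 0.1 mM ZnSO4, was used at 300 nM final with competitor peptides for 1 h at room temperature. Buffer was 150 mM NaCl, 20 mM HEPES pH 7.4, 7.5 mM CHAPS and 1 mM DTT. Anti-Flag-K (0.5 μM) and anti-His-D2 (4 nM) were then added for 2 h, and IC50s were fitted from the TR-FRET ratio.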
# HRE-bla ME-180 cells = test: Reporter gene assay (HRE-bla ME-180 HIF reporter, GeneBLAzer); type: cell-based, human; details: for EC50: 24 hour normoxia
# Outline: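 A FRET β-lactamase readout of HIF transcription was used. After compound treatment in 0.3% DMSO/media under normoxic conditions, 20 μl of 6× LiveBLAzer-FRET B/G (CCF4-AM) substrate was added. Plates sat 3 hr at room temperature in the dark and were read at 409 Ex/460Em and 409Ex/530Em on a Synergy 2. Inhibition was compared against DMSO vehicle controls, with chetomin as positive control.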
SMILES,IC50 [1] [nM],18 h Avg % max inhibition at top conc (HIF Rptr-24 hrs normoxia) (μM) (HRE-bla ME-180 cells),EC50 (HRE-bla ME-180 cells) [µM]
CC[C@H](C)[C@H](NC(=O)[C@H](Cc1ccccc1)NC(C)=O)C(=O)N[C@@H](CC(=O)O)C(=O)N[C@@H](CCC(N)=O)C(=O)N[C@@H](CCC(=O)O)C(=O)N[C@H](C(=O)N[C@@H](CC(C)C)C(=O)N[C@@H](CCSC)C(=O)N[C@@]1(C)CCCC=CCCC[C@@](C)(C(=O)N[C@@H](CCSC)C(=O)N[C@@H](C)C(=O)N[C@@H](CC(C)C)C(N)=O)NC(=O)[C@H]([C@@H](C)CC)NC(=O)[C@H](C(C)C)NC(=O)[C@H](CC(C)C)NC1=O)C(C)C [SP-233] (Ac-FIDQEVLM[S5]LVI[S5]MAL-NH2; staple 9-13),400 to 700,+++ (≤25 but <50: +++),15 to 30
CCCC[C@@H]1NC(=O)[C@H](CC(C)C)NC(=O)[C@H]([C@@H](C)O)NC(=O)[C@@](C)(NC(=O)[C@H](C)NC(=O)[C@H](CC(=O)O)NC(=O)[C@@H](NC(=O)[C@H](Cc2ccccc2)NC(C)=O)[C@@H](C)CC)CCCC=CCCCC2(CCCC=CCCC[C@](C)(C(=O)N[C@@H](CCCC)C(=O)N[C@@H](C)C(=O)N[C@@H](CC(C)C)C(N)=O)NC(=O)[C@H]([C@@H](C)CC)NC(=O)[C@H](C(C)C)NC(=O)[C@H](CO)NC2=O)NC1=O (stereo partly drawn) [SP-214],> 700,+++ (≤25 but <50: +++),> 30
CCCC[C@@H]1NC(=O)[C@H](CC(C)C)NC(=O)[C@H](CCCNC(=N)N)NC(=O)[C@@](C)(NC(=O)[C@H](CCC(=O)O)NC(=O)[C@H](CC(=O)O)NC(=O)[C@@H](NC(=O)[C@H](Cc2ccccc2)NC(C)=O)[C@@H](C)CC)CCCC=CCCCC2(CCCC=CCCC[C@](C)(C(=O)N[C@@H](CCCC)C(=O)N[C@@H](C)C(=O)N[C@@H](CC(C)C)C(N)=O)NC(=O)[C@H]([C@@H](C)CC)NC(=O)[C@H](C(C)C)NC(=O)[C@H](CC(C)C)NC2=O)NC1=O (stereo partly drawn) [SP-206],> 700,+ (<10: +),> 30
CCCC[C@H](NC(=O)[C@H](CC(C)C)NC(=O)[C@@H](NC(=O)[C@H](CCC(=O)O)NC(=O)[C@H](CCC(=O)O)NC(=O)[C@H](CC(=O)O)NC(=O)[C@@H](NC(=O)[C@H](Cc1ccccc1)NC(C)=O)[C@@H](C)CC)C(C)C)C(=O)N[C@@]1(C)CCCC=CCCC[C@@](C)(C(=O)N[C@@H](CCCC)C(=O)N[C@@H](C)C(=O)N[C@@H](CC(C)C)C(N)=O)NC(=O)[C@H]([C@@H](C)CC)NC(=O)[C@H](C(C)C)NC(=O)[C@H](Cc2ccccc2)NC1=O [SP-219] (Ac-FIDEEVL[Nle][S5]FVI[S5][Nle]AL-NH2; staple 9-13),400 to 700,++ (≤10 but <25: ++),> 30
CC[C@H](C)[C@H](NC(=O)[C@H](Cc1ccccc1)NC(C)=O)C(=O)N[C@@H](CC(=O)O)C(=O)N[C@@H](CCC(=O)O)C(=O)N[C@@H](CCC(=O)O)C(=O)N[C@H](C(=O)N[C@@H](CC(C)C)C(=O)N[C@@H](CCSC)C(=O)N[C@@]1(C)CCCC=CCCC[C@@](C)(C(=O)N[C@@H](CCSC)C(=O)N[C@@H](C)C(=O)N[C@@H](CC2CCC2)C(N)=O)NC(=O)[C@H]([C@@H](C)CC)NC(=O)[C@H](C(C)C)NC(=O)[C@H](CC(C)C)NC1=O)C(C)C [SP-237] (Ac-FIDEEVLM[S5]LVI[S5]MA[Cba]-NH2; staple 9-13),> 700,+++ (≤25 but <50: +++),> 30
CCCC[C@@H]1NC(=O)[C@H](CC(C)C)NC(=O)[C@H](C(C)C)NC(=O)[C@@](C)(NC(=O)[C@H](CCC(=O)O)NC(=O)[C@H](CC(=O)O)NC(=O)[C@@H](NC(=O)[C@H](Cc2ccccc2)NC(C)=O)[C@@H](C)CC)CCCC=CCCCC2(CCCC=CCCC[C@](C)(C(=O)N[C@@H](CCCC)C(=O)N[C@@H](C)C(=O)N[C@@H](CC(C)C)C(N)=O)NC(=O)[C@H]([C@@H](C)CC)NC(=O)[C@H](C(C)C)NC(=O)[C@H](CCCNC(=N)N)NC2=O)NC1=O (stereo partly drawn) [SP-209],> 700,++ (≤10 but <25: ++),> 30
CCCC[C@H](NC(=O)[C@H](C)NC(=O)[C@H](C)NC(=O)[C@H](CCCC)NC(=O)[C@H](C)NC(=O)[C@H](CCCC)NC(=O)[C@H](CC(C)C)NC(=O)[C@@H](NC(=O)[C@@H](NC(=O)[C@H](CC(C)C)NC(=O)[C@]1(C)CCCC=CCCC[C@](C)(NC(=O)[C@H](CCC(=O)O)NC(=O)[C@H](CC(=O)O)NC(=O)[C@@H](NC(=O)[C@H](Cc2ccccc2)NC(C)=O)[C@@H](C)CC)C(=O)N[C@@H](C(C)C)C(=O)N[C@@H](CC(C)C)C(=O)N[C@@H](CCCC)C(=O)N1)C(C)C)[C@@H](C)CC)C(N)=O [SP-126] (Ac-FIDE[S5]VL[Nle][S5]LVIL[Nle]A[Nle]AA[Nle]-NH2; staple 5-9),200 to 400,++++ (≥50: ++++),15 to 30
CC[C@H](C)[C@H](NC(=O)[C@H](Cc1ccccc1)NC(C)=O)C(=O)N[C@@H](CC(=O)O)C(=O)N[C@@H](CCC(=O)O)C(=O)N[C@@H](CO)C(=O)N[C@H](C(=O)N[C@@H](CC(C)C)C(=O)N[C@@H](CCSC)C(=O)N[C@@]1(C)CCCC=CCCC[C@@](C)(C(=O)N[C@@H](CCSC)C(=O)N[C@@H](C)C(=O)N[C@@H](CC(C)C)C(N)=O)NC(=O)[C@H]([C@@H](C)CC)NC(=O)[C@H](C(C)C)NC(=O)[C@H](CC(C)C)NC1=O)C(C)C [SP-238] (Ac-FIDESVLM[S5]LVI[S5]MAL-NH2; staple 9-13),400 to 700,++ (≤10 but <25: ++),> 30
CC[C@H](C)[C@H](NC(=O)[C@H](Cc1ccccc1)NC(C)=O)C(=O)N[C@H](C(=O)N[C@@H](CCC(=O)O)C(=O)N[C@@H](CCC(=O)O)C(=O)N[C@H](C(=O)N[C@@H](CC(C)C)C(=O)N[C@@H](CCSC)C(=O)N[C@@]1(C)CCCC=CCCC[C@@](C)(C(=O)N[C@@H](CCSC)C(=O)N[C@@H](C)C(=O)N[C@@H](CC(C)C)C(N)=O)NC(=O)[C@H]([C@@H](C)CC)NC(=O)[C@H](C(C)C)NC(=O)[C@H](CC(C)C)NC1=O)C(C)C)[C@@H](C)O [SP-231] (Ac-FITEEVLM[S5]LVI[S5]MAL-NH2; staple 9-13),> 700,+ (<10: +),> 30
CCCC[C@H](NC(=O)[C@H](CCCNC(=N)N)NC(=O)[C@H](CC(=O)O)NC(=O)[C@H](CC(C)C)NC(=O)[C@H](C)NC(=O)[C@H](CCCC)NC(=O)[C@H](C)NC(=O)[C@@H](NC(=O)[C@@H](NC(=O)[C@H](CC(C)C)NC(=O)[C@]1(C)CCCC=CCCC[C@](C)(NC(=O)[C@H](CCC(=O)O)NC(=O)[C@H](CC(=O)O)NC(=O)[C@@H](NC(=O)[C@H](Cc2ccccc2)NC(C)=O)[C@@H](C)CC)C(=O)N[C@@H](C(C)C)C(=O)N[C@@H](CC(C)C)C(=O)N[C@@H](CCCC)C(=O)N1)C(C)C)[C@@H](C)CC)C(N)=O [SP-125] (Ac-FIDE[S5]VL[Nle][S5]LVIA[Nle]ALDR[Nle]-NH2; staple 5-9),200 to 400,+ (<10: +),> 30
CCCC[C@H](NC(=O)[C@H](CCC(=O)O)NC(=O)[C@@H](NC(=O)[C@@H](NC(=O)[C@H](CC(C)C)NC(=O)[C@]1(C)CCCC=CCCC[C@](C)(NC(=O)[C@H](CCC(=O)O)NC(=O)[C@H](C)NC(=O)[C@@H](NC(=O)[C@H](Cc2ccccc2)NC(C)=O)[C@@H](C)CC)C(=O)N[C@@H](C(C)C)C(=O)N[C@@H](CC(C)C)C(=O)N[C@@H](CCCC)C(=O)N1)C(C)C)[C@@H](C)CC)C(=O)N[C@@H](C)C(=O)N[C@@H](CC(C)C)C(=O)N[C@@H](CC(=O)O)C(=O)N[C@@H](C)C(=O)N[C@H](C(N)=O)[C@@H](C)CC [SP-120] (Ac-FIAE[S5]VL[Nle][S5]LVIE[Nle]ALDAI-NH2; staple 5-9),≤ 200,+ (<10: +),> 30
CCCC[C@H](NC(=O)[C@H](C)NC(=O)[C@]1(C)CCCC=CCCCCCC[C@@](C)(NC(=O)[C@H](CCC(=O)O)NC(=O)[C@H](C)NC(=O)[C@@H](NC(=O)[C@H](Cc2ccccc2)NC(C)=O)[C@@H](C)CC)C(=O)N[C@@H](C(C)C)C(=O)N[C@@H](CC(C)C)C(=O)N[C@@H](CCCC)C(=O)N[C@@H](CO)C(=O)N[C@@H](CC(C)C)C(=O)N[C@@H](C(C)C)C(=O)N1)C(=O)N[C@@H](C)C(=O)N[C@@H](CC(C)C)C(=O)N[C@@H](CC(=O)O)C(=O)N[C@@H](C)C(=O)N[C@H](C(N)=O)[C@@H](C)CC [SP-193] (Ac-FIAE[R8]VL[Nle]SLV[S5]A[Nle]ALDAI-NH2; staple 5-12),400 to 700,+ (<10: +),> 30
CC[C@H](C)[C@H](NC(=O)[C@H](Cc1ccccc1)NC(C)=O)C(=O)N[C@@H](CC(N)=O)C(=O)N[C@@H](CCC(=O)O)C(=O)N[C@@H](CCC(=O)O)C(=O)N[C@H](C(=O)N[C@@H](CC(C)C)C(=O)N[C@@H](CCSC)C(=O)N[C@@]1(C)CCCC=CCCC[C@@](C)(C(=O)N[C@@H](CCSC)C(=O)N[C@@H](C)C(=O)N[C@@H](CC(C)C)C(N)=O)NC(=O)[C@H]([C@@H](C)CC)NC(=O)[C@H](C(C)C)NC(=O)[C@H](CC(C)C)NC1=O)C(C)C [SP-232] (Ac-FINEEVLM[S5]LVI[S5]MAL-NH2; staple 9-13),400 to 700,++ (≤10 but <25: ++),> 30
